Laboratory results published in publication PMC5618426, “APETx4, a Novel Sea Anemone Toxin and a Modulator of the Cancer-Relevant Potassium Channel KV10.1” (Marine Drugs, 2017).
Positions of bridges follow the written chain, without caps; N, C: chain ends. No end group written: not given here.

Assays:
NIH-3T3 = assay: proliferation (IncuCyte confluency); format: cell-based, mouse; conditions: cell confluency (%) over time, n = 4 wells
Protocol: (§1) The cell proliferation was quantified in terms of cell confluency (%) over time; data points were collected every hour. […] LNCaP, it is presumed that the observed effect cannot only be attributed to KV10.1 inhibition (Figure S5).
(§2) Cell lines SH-SY5Y (ACC 209), LNCaP (ACC 256) and NIH-3T3 (ACC 59) were purchased from DSMZ (Germany). MDA-MB-435S (HTB 129) and hTERT RPE-1 (CRL 4000) were obtained from ATCC (USA). Cell lines were cultured in their recommended media supplemented with 10% or 15% FCS (PAA laboratories, Cölbe, Germany) at 37 °C in humidified 5% CO2 atmosphere. All media were purchased from ThermoFisher Scientific (Waltham, MA, USA).
(§3) Cell proliferation, cytotoxicity and apoptosis were assessed in a 96-well microtiter plate by live-cell imaging using an IncuCyte Zoom System (Essen BioScience, Welwyn Garden City, UK). Cell proliferation was monitored in terms of cell confluency (%). Cell cytotoxicity was assessed by the CellTox Green Dye assay (Promega, Madison, WI, USA). The IncuCyte Caspase-3/7 apoptosis assay (Essen BioScience, UK) was used to evaluate the effect of APETx4 on the apoptotic pathway.
Live-cell imaging data were collected from the IncuCyte Zoom software and analyzed using GraphPad Prism 6 software. Proliferation was measured as Phase Object Confluence (%), cytotoxicity and apoptosis were measured as Green Object Count (1/mm²). Data points were collected every hour. […]

hTERT RPE-1 = assay: proliferation (IncuCyte confluency); format: cell-based, human; conditions: cell confluency (%) over time, n = 4 wells
Protocol: as §1, §2, §3
Live-cell imaging data were collected from the IncuCyte Zoom software and analyzed using GraphPad Prism 6 software. Proliferation was measured as Phase Object Confluence (%), cytotoxicity and apoptosis were measured as Green Object Count (1/mm²). Data points were collected every hour. In order to improve the clarity of the graphs, only the data points for every 5 h are shown. All data are represented as mean ± S.E.M of n = 4 different wells.

Sequence: GTTCYCGKTIGIYWFGKYSCPTNRGYTGSCPYFLGICCYPVD (disulfide 4-37, 6-30, 20-38) [APETx4]
- antiproliferative effect (NIH-3T3): without affecting the proliferation of healthy fibroblast cells
- antiproliferative effect (hTERT RPE-1): concentration-dependent antiproliferative effect
